Experiment [1] deals with Aedes aegypti. Kind of experiment: In vitro Warm Body assay, mosquitoes landing on treated warm body. Type of experiment: in vivo. As for the experimental part: The arthropod controlling effect according to the present invention is determined on mosquitoes using an adapted Warm Body assay as defined in Kröber T, Kessler S, Frei J, Bourquin M, Guerin P M. An in vitro assay for testing mosquito controlling compounds employing a warm body and carbon dioxide as a behavioral activator. J Am Mosq Control Assoc. 2010; 26:381-386.
The controlling effect according to the present invention is determined by testing the Warm Body assay against the yellow fever mosquito, Aedes aegypti Rockefeller strain. […] Observations of controlling efficacy were made on host-seeking females of uniform age, 5 to 10 days old selected as mentioned in the publication mentioned hereinabove. Tested hungry females had access to 10% sugar solution but were not blood-fed.
The published protocol has been adapted in not manually counting the landing mosquitoes but automatically using an automatic counting software, the switch from Anopheles gambiae to A. aegypti led to a decrease of mosquitoes' number placed in the tested cage due to the size difference (i.e. 30 mosquitoes instead of 50) and to an increase of lighting as A. aegypti is a diurnal mosquitoes (i.e. 150 lux instead of 4 lux).
The controlling effect according to the present invention is determined by testing the Warm Body assay against the yellow fever mosquito, A. aegypti Rockefeller strain. […] Observations of controlling efficacy were made on host-seeking females of uniform age, 5 to 10 days old selected as mentioned in the publication mentioned hereinabove. Tested hungry females had access to 10% sugar solution but were not blood-fed.
The controlling effect according to the present invention was assessed using an adapted Warm Body assay as defined in Kröber T, Kessler S, Frei J, Bourquin M, Guerin P M. An in vitro assay for testing mosquito controlling compounds employing a warm body and carbon dioxide as a behavioral activator. J Am Mosq Control Assoc. 2010; 26:381-386.
The published protocol has been adapted in not manually counting the landing mosquitoes but automatically using an automatic counting software, the switch from Anopheles gambiae to Aedes aegypti led to a decrease of mosquitoes' number placed in the tested cage due to the size difference (i.e. 30 mosquitoes instead of 50) and to an increase of lighting as Aedes aegypti is a diurnal mosquitoes (i.e. 150 lux instead of 4 lux).
In this in-vitro assay the number of A. aegypti landing on a warm body treated with the tested stimuli was measured in order to assess the repellency effect. Three replicates were carried on the three different doses: 0.0016%, 0.04% and 1% in ethanol, using 25 A. aegypti 10-12 days old females per cage.
In this in-vitro assay, the number of Aedes aegypti landing on a warm body treated with the tested stimuli was measured in order to assess the repellency effect. Three replicates were carried on the three different doses: 0.0016%, 0.04% and 1% in ethanol.
In this in-vitro assay, the number of Aedes aegypti landing on a warm body treated with the tested stimuli was measured in order to assess the repellency effect. One replicate was carried at different doses ranging from 0.0016% up to 1% in ethanol.

In experiment [2] the test system is Ixodes ricinus. Put plainly: In vitro Warm Plate Assay for ticks. The class given is in vivo. The conditions noted are these: Ixodes ricinus, read-out: percentage of ticks affected on the Warm Plate. As for the experimental part: Repellent efficacy of the different compounds was assessed against the sheep tick, Ixodes ricinus. I. ricinus is one of the recommended model organisms mentioned by the Guidance on the European Biological Products Regulation [Vol II, Efficacy-Assessment & Evaluation (Parts B+C), v. 3.0, April 2018]. Observations of repellent efficacy were made on last stage nymphs.
The repellent efficacy was assessed using the protocol of the in-vitro Warm Plate Assay as defined in Kröber T, Bourquin M, Guerin P M. A standardized in vivo and in vitro test method for evaluating tick repellents. Pesticide Biochemistry and Physiology. 2013; 107 (2): 160-168.].
The mean±SD number of ticks Ixodes ricinus walking down (affected), falling (affected) or walking-up (non affected) from the warm plate treated with ethanol, N,N-diethyl-3-methylbenzamide, (2,5-dimethyl-2,3-dihydro-1H-inden-2yl)methanol (Ingredient 2) or (2,4,6-trimethyl-2,3-dihydro-1H-inden-2-yl)methanol (Ingredient 1) diluted in ethanol at 0.4 mg/ml and 10 mg/mL was assessed on n groups of 12 ticks (n=2-5).
In this in-vitro assay, the percentage of ticks Ixodes ricinus affected by the stimulus loaded on the warm plate was measured in order to assess the repellency effect. Twelve ticks were assessed per concentrations that goes from 0.0016% up to 1% in ethanol.
Using the same in-vitro setup, the effect on ticks behavior (n≥12) of different stimuli diluted in ethanol at 20% (w/w) was assessed overtime.

Like-named read-outs stand apart in the source and are kept apart here.

In the case of `CCCCC[C@@H]1C(=O)CC[C@@H]1CC(=O)OC` [ingredient #4, (+)-methyl (1R)-cis-3-oxo-2-pentyl-1-cyclopentaneacetate, reference compound], the “number of mosquitoes landed on the Warm Body” value (from here on “number of mosquitoes landed”) in experiment [1] (0.0016% in ethanol (Table 7, one replicate)) was 66. For the same compound, the “number of mosquitoes landed” value in experiment [1] (0.008% in ethanol (Table 7, one replicate)) is recorded as 53. Also, the “number of mosquitoes landed” value in experiment [1] (0.04% in ethanol (Table 7, one replicate)) amounted to 16. For the same compound, in experiment [1] (0.2% in ethanol (Table 7, one replicate)), the “number of mosquitoes landed” value is listed as 17. In addition, in experiment [1] (1% in ethanol (Table 7, one replicate)), the “number of mosquitoes landed” value is 4. Further, in experiment [2], the pest or weed control at 0.0016 % came out at 15%, the pest or weed control at 0.0053 % worked out at 17%, the pest or weed control at 0.008 % stood at 8% and the pest or weed control at 0.0119 % was found to be 0%. In experiment [2], the pest or weed control at 0.0178 % came out at 33%, the pest or weed control at 0.0267 % was 36%, the pest or weed control at 0.04 % worked out at 92% and the pest or weed control at 0.0598 % was 100%. Besides, in experiment [2], the pest or weed control at 0.089 % is 100%, the pest or weed control at 0.2 % is 100%, the pest or weed control at 0.447 % amounted to 92% and the pest or weed control at 1 % amounted to 100%.
Turning to `CC1(CO)Cc2ccc(C(C)(C)C)cc2C1` (racemic) [(+−)-5-tert-butyl-2-methyl-2-indanmethanol], the “repellent effect with increasing amount of stimuli (in words)” value in experiment [1] (0.0016%, 0.04% and 1% in ethanol (FIG. 10)) is given as “low decrease of landing”. Besides, in experiment [2] (0.0016% (Table 11)), the pest or weed control at 0.0016 % stood at 0%. Also, the pest or weed control at 0.04 % in experiment [2] (0.04% (Table 11)) is 8%. For the same compound, the pest or weed control at 1 % in experiment [2] (1% (Table 11)) was 92%.
Turning to “(2RS,4aSR,9bRS)-2,8-dimethyl-4,4a,5,9b-tetrahydroindeno[1,2-d][1,3]dioxine + 2RS,4aRS,9bSR)-2,8-dimethyl-4,4a,5,9b-tetrahydroindeno[1,2-d][1,3]dioxine”, the “number of mosquitoes landed” value in experiment [1] (0.0016% in ethanol (Table 6)) stood at 38; in experiment [1] (0.04% in ethanol (Table 6)) it was 14; in experiment [1] (1% in ethanol (Table 6)), 4.
As for `CCc1ccc2c(c1)CC(C)(CO)C2` (stereo not shown) [5-ethyl-2-methyl-2-indanmethanol], the pest or weed control at 0.04 % in experiment [1] (Aedes aegypti, read-out: decrease of landings) is roughly 70%.
`CC1(C)OC[C@H]2Cc3ccccc3[C@H]2O1` (racemic) [(4aRS,9bSR)-2,2-dimethyl-4,4a,5,9b-tetrahydroindeno[1,2-d][1,3]dioxin]: the “number of mosquitoes landed” value in experiment [1] (0.0016% in ethanol (Table 6)) is recorded as 30; in experiment [1] (0.04% in ethanol (Table 6)) it was 1; in experiment [1] (1% in ethanol (Table 6)), 0.
Turning to “(2RS,4aSR,9bRS)-2-ethyl-4,4a,5,9b-tetrahydroindeno[1,2-d][1,3]dioxine + (2RS,4aRS,9bSR)-2-ethyl-4,4a,5,9b-tetrahydroindeno[1,2-d][1,3]dioxine”, the results for the “number of mosquitoes landed” value in experiment [1] (0.0016% in ethanol (Table 6)), in experiment [1] (0.04% in ethanol (Table 6)) and in experiment [1] (1% in ethanol (Table 6)) were 43, 6 and 5, respectively.
`Cc1ccc2c(c1)C[C@]1(C)COCO[C@H]21` (racemic) [(4aRS,9bRS)-4a,7-dimethyl-4,4a,5,9b-tetrahydroindeno[1,2-d][1,3]dioxine]: in experiment [1] (0.0016% in ethanol (Table 6)), the “number of mosquitoes landed” value came out at 17.
As to `Cc1ccc2c(c1)C1OC(=O)OCC1(C)C2` (stereo not shown) [4a,8-dimethyl-indano[1,2-d]-1,3-dioxan-2-one], in experiment [1] (0.04% in ethanol (FIG. 8)), the decrease of landings is given as roughly 70%.
Turning to `CC1OC(C)C2Cc3ccccc3C2O1` (stereo not drawn) [(+)-2,4-dimethyl-4,4a,5,9b-tetrahydroindeno[1,2-d][1,3]dioxine + (−)-2,4-dimethyl-4,4a,5,9b-tetrahydroindeno[1,2-d][1,3]dioxine], the “number of mosquitoes landed” value in experiment [1] (0.0016% in ethanol (Table 6)) came to 58; in experiment [1] (0.04% in ethanol (Table 6)) it was 37; in experiment [1] (1% in ethanol (Table 6)), 3.
Regarding “(2RS,4aRS,9bRS)-2,4a,7-trimethyl-4,4a,5,9b-tetrahydroindeno[1,2-d][1,3]dioxine + (2RS,4aSR,9bSR)-2,4a,7-trimethyl-4,4a,5,9b-tetrahydroindeno[1,2-d][1,3]dioxine”, the “number of mosquitoes landed” value in experiment [1] (0.0016% in ethanol (Table 6)) is listed as 30; in experiment [1] (0.04% in ethanol (Table 6)) it was 0; in experiment [1] (0.04% in ethanol (Table 6), listed as blend of (2RS,4aRS,9bRS)-2,4a,7-trimethyl-4,4a,5,9b-tetrahydroindeno[1,2-d][1,3]) it was “no mosquito landed at all”; in experiment [1] (1% in ethanol (Table 6)), 0; in experiment [1] (1% in ethanol (Table 6), listed as blend of (2RS,4aRS,9bRS)-2,4a,7-trimethyl-4,4a,5,9b-tetrahydroindeno[1,2-d][1,3]) it was “zero”.
As for “(2RS,4aRS,9bSR)-2-ethyl-8-methyl-4,4a,5,9b-tetrahydroindeno[1,2-d][1,3]dioxin + (2RS,4aSR,9bRS)-2-ethyl-8-methyl-4,4a,5,9b-tetrahydroindeno[1,2-d][1,3]dioxin”, the results for the “number of mosquitoes landed” value in experiment [1] (0.0016% in ethanol (Table 6)), in experiment [1] (0.04% in ethanol (Table 6)) and in experiment [1] (1% in ethanol (Table 6)) were 45, 24 and 10, respectively.
As to `Cc1ccc2c(c1)C[C@]1(C)COC(C)(C)O[C@H]21` (racemic) [(4aRS,9bRS)-2,2,4a,7-tetramethyl-4,4a,5,9b-tetrahydroindeno[1,2-d][1,3]dioxine], the “number of mosquitoes landed” value in experiment [1] (0.0016% in ethanol (Table 6)) is given as 51; in experiment [1] (0.04% in ethanol (Table 6)), 44; in experiment [1] (1% in ethanol (Table 6)) it was 8.
`Cc1ccc2c(c1)[C@H]1OC(C)(C)OC[C@@]1(C)C2` (racemic) [(4aRS,9bRS)-2,2,4a,8-tetramethyl-4,4a,5,9b-tetrahydroindeno[1,2-d][1,3]dioxine]: the “number of mosquitoes landed” value in experiment [1] (0.0016% in ethanol (Table 6)) is 59; in experiment [1] (0.04% in ethanol (Table 6)), 12; in experiment [1] (1% in ethanol (Table 6)), 11.
As to `C[C@H]1O[C@@H]2c3ccccc3C[C@@H]2[C@@H](C)O1` (racemic) [(2RS,4RS,4ARS,9BSR)-2,4-dimethyl-4,4a,5,9b-tetrahydroindeno[1,2-d][1,3]dioxine], the “number of mosquitoes landed” value in experiment [1] (0.0016% in ethanol (Table 6)) is given as 17; in experiment [1] (0.04% in ethanol (Table 6)), 13.
